# Experimental data from PubChem BioAssay AID1549 (Sanford-Burnham Center for Chemical Genomics, 2009).
# The source made the active and inactive calls. How the calls were made is not given here.
# Molecular target: Influenza A virus M2 proton channel (A/TW/4845/1999 H1N1)
# Assay: NMR binding screen, influenza A virus M2 proton channel, Kd (AID 1549)
# Settings: M2 protein
row,Structure (SMILES),Kd
1,O=C(Nc1nnc(C(F)(F)F)s1)c1cccnc1,> 4 mM (inactive)
2,CC(C)(C)c1cc(CN)c(C(=O)O)o1,> 4 mM (inactive)
3,CC(=O)Nc1cc(S(=O)(=O)N(C)C)ccc1Cl,> 4 mM (inactive)
4,C=CCN1CC[C@]23c4c5ccc(O)c4OC2C(=O)CC[C@@]3(O)[C@H]1C5 (some centres undefined),> 4 mM (inactive)
5,COC(=O)c1cc2ccccc2cn1,> 4 mM (inactive)
6,O=C1CN(c2ccccc2)CC(=O)N1,> 4 mM (inactive)
7,CN1C(=O)c2ccc(C(=O)NC3CCCCC3)cc2C1=O,> 4 mM (inactive)
8,CC(C)CCCC(C)[C@H]1CCC2C3CC=C4CC(=O)CC[C@]4(C)C3CC[C@@]21C (some centres undefined),> 4 mM (inactive)
9,O=C1CCC(=O)N1CN1CCOCC1,> 4 mM (inactive)
10,CCOC(=O)Cn1cnc2c1c(=O)[nH]c(=O)n2C,> 4 mM (inactive)
11,Cc1csc(NC(=O)c2cccs2)n1,> 4 mM (inactive)
12,O=C(CO)N/N=C/c1ccccc1F,> 4 mM (inactive)
13,COc1ccc(-c2cc(=O)c3c(O)cc(O)c(-c4cc(-c5cc(=O)c6c(O)cc(O)cc6o5)ccc4OC)c3o2)cc1,> 4 mM (inactive)
14,O=C(Nc1ccccc1)Nc1ccccc1,> 4 mM (inactive)
15,CCC(CO)NC(=O)c1snnc1C (centres undefined),> 4 mM (inactive)
16,NC(=S)NC(=O)CN1C(=O)c2ccccc2C1=O,> 4 mM (inactive)
17,O=C(O)CCCC(=O)Nc1nccs1,> 4 mM (inactive)
18,O=C(NC(O)C(=O)c1ccccc1)c1ccco1 (centres undefined),> 4 mM (inactive)
19,NC(=O)/C=C/C(=O)Nc1ccccc1,> 4 mM (inactive)
20,c1cncc(C(N2CCOCC2)N2CCOCC2)c1,> 4 mM (inactive)
21,NC(=O)Cn1cnc(-c2ccc(F)cc2)c1,> 4 mM (inactive)
22,Cc1cc(NC(=O)NCCCSc2nncn2C)no1,> 4 mM (inactive)
23,O=C1c2ccncc2C(=O)N1CO,> 4 mM (inactive)
24,c1cncc(-c2nnc(-c3cccnc3)nn2)c1,> 4 mM (inactive)

row,Structure (SMILES),Kd
1,CC(=O)Nc1cnn(-c2ccccc2)c(=O)c1Cl,> 4 mM (inactive)
2,COc1cccc(/C=C2/SC(N)=NC2=O)c1,> 4 mM (inactive)
3,COCCn1c(SC)nc2c1c(=O)[nH]c(=O)n2C,> 4 mM (inactive)
4,COc1ccc(C(=O)NCC(=O)O)cc1,> 4 mM (inactive)
5,N#Cc1cc2c(nc1SCc1ccncc1)CCC2,> 4 mM (inactive)
6,O=C(O)c1ccc(Nc2nncc(=O)[nH]2)cc1,> 4 mM (inactive)
7,CCOC(=O)C1=C(O)CCN(C)C1,> 4 mM (inactive)
8,O=C(O)C1CNc2ccccc2O1 (centres undefined),> 4 mM (inactive)
9,O=c1[nH]cc(NCc2ccccc2)c(=O)[nH]1,> 4 mM (inactive)
10,CCCCCCCCCCCC[C@H](C(=O)O)[C@@H](C)C(=O)O,> 4 mM (inactive)
11,COc1ccc2c(c1)C(NC(C)=O)C(=O)N2C (centres undefined),> 4 mM (inactive)
12,COc1ccc2c(=O)c(OC)c(-c3ccccc3)oc2c1,> 4 mM (inactive)
13,CC(=O)Nc1cc(N2C(=O)C=CC2=O)ccc1Cl,> 4 mM (inactive)
14,CC(C)NC(=O)Cc1c(O)c2ccccc2[nH]c1=O,> 4 mM (inactive)
15,O=C(CSc1cccc2cccnc12)N1CCCC1,> 4 mM (inactive)
16,COc1cc2c(cc1OC)[C@@H]1C(=O)c3ccc4c(c3O[C@@H]1CO2)C=CC(C)(C)O4,> 4 mM (inactive)
17,CN(C)c1nc(N)nc(Cn2ccnc2)n1,> 4 mM (inactive)
18,NC(=O)NCCCC(N)C(=O)O (centres undefined),> 4 mM (inactive)
19,CCOc1ccc(C(=O)c2ccc(O)c(O)c2O)cc1,> 4 mM (inactive)
20,COC(=O)c1c[nH]c2ccccc12,> 4 mM (inactive)
21,CC1=C(/C=C/C(C)=C/C=C/C(C)=C/C=C/C=C(C)/C=C/C=C(C)/C=C/C2=C(C)CCCC2(C)C)C(C)(C)CCC1,> 4 mM (inactive)
22,O=c1cc(-c2cc(O)c(O)c(O)c2)oc2cc(O)cc(O)c12,> 4 mM (inactive)
23,O=C(Oc1ccc2c(c1)OCC2=O)c1ccccc1,> 4 mM (inactive)
24,CC(C)NC(=S)N1CCN(S(C)(=O)=O)CC1,> 4 mM (inactive)

row,Structure (SMILES),Kd
1,COc1ccc(-c2nc(C)sc2CC(=O)O)cc1,> 4 mM (inactive)
2,O=c1[nH]cc(N=Cc2ccc(F)cc2)c(=O)[nH]1,> 4 mM (inactive)
3,COc1cc(-c2coc3cc(OCc4ccccc4)c(OC)c(O)c3c2=O)cc(O)c1OC,> 4 mM (inactive)
4,N#CCCn1c(=O)oc2ccccc21,> 4 mM (inactive)
5,Cc1occc1C(=O)NCc1ccccn1,> 4 mM (inactive)
6,O=CN1CCN(C2CC(=O)N(c3ccccc3)C2=O)CC1 (centres undefined),> 4 mM (inactive)
7,COc1ccc(-c2coc3cc(O)ccc3c2=O)c(OC)c1,> 4 mM (inactive)
8,NC(=O)c1ccccc1NC(=O)c1cccnc1,> 4 mM (inactive)
9,S=c1nc2c(n[nH]1)[nH]c1ccccc12,> 4 mM (inactive)
10,C=C1C2=CC(=O)O[C@@H](c3ccoc3)[C@]2(C)CCC1[C@@]1(C)C=CC(=O)C(C)(C)[C@@H]1CC(=O)OC (some centres undefined),> 4 mM (inactive)
11,Cc1cc(C(F)(F)F)n2nc(C(=O)O)c(Cl)c2n1,> 4 mM (inactive)
12,Cc1cc(=O)cc(C)n1-c1ccccc1N1CCOCC1,> 4 mM (inactive)
13,Cc1nccc(-c2cccc(N)c2)n1,> 4 mM (inactive)
14,N#Cc1cnn(Cc2ccc(Cl)cc2)c1N,> 4 mM (inactive)
15,CC(=O)Nc1nnc(-c2ccccn2)o1,> 4 mM (inactive)
16,Cn1cnnc1Sc1ncnc(N)c1[N+](=O)[O-],> 4 mM (inactive)
17,Cn1ncc(SCc2ccco2)c(Cl)c1=O,> 4 mM (inactive)
18,NC(=O)Cc1nc(-c2ccc(F)cc2)cs1,> 4 mM (inactive)
19,O=C(O)CC1C(=O)NCCN1Cc1ccccc1 (centres undefined),> 4 mM (inactive)
20,Cc1cc(=O)[nH]c(N2CCN(Cc3ccccc3)CC2)n1,> 4 mM (inactive)
21,COc1ccc(S(=O)(=O)NCCO)cc1,> 4 mM (inactive)
22,O=C(Nc1nncs1)Oc1ccccc1,> 4 mM (inactive)
23,Cc1ccc(C(=O)Nn2cnnc2)s1,> 4 mM (inactive)
24,O=c1cc(CO)oc(CN2CCCCC2)c1O,> 4 mM (inactive)

row,Structure (SMILES),Kd
1,O=C1CCCC2C3CC(CN12)[C@@H]1CCCCN1C3 (some centres undefined),> 4 mM (inactive)
2,CN1CCC(NC(=O)C2CCCO2)CC1 (centres undefined),> 4 mM (inactive)
3,O=C(c1cc(Cl)cc(Cl)c1)N1CCOCC1,> 4 mM (inactive)
4,O=C1NC(=S)N/C1=C/c1ccc(O)c(Cl)c1,> 4 mM (inactive)
5,COc1ccc2c(c1)OC/C(=C\c1ccc(OC)c(O)c1)C2=O,> 4 mM (inactive)
6,CCOC(=O)C1CCN(Cc2ccccc2)CC1=O (centres undefined),> 4 mM (inactive)
7,CC(=O)Cc1nsc(NC(=O)c2ccc(C)cc2)n1,> 4 mM (inactive)
8,O=C(NCc1cccc(Cl)c1)c1cnccn1,> 4 mM (inactive)
9,O=C1N=c2ccccc2=C1c1[nH]c(=S)[nH]c1O,> 4 mM (inactive)
10,CC(=O)NC(C)C12CC3CC(CC(C(=O)O)(C3)C1)C2 (centres undefined),> 4 mM (inactive)
11,Cc1cc(C(=O)Nc2ccc3c(c2)OCO3)cs1,> 4 mM (inactive)
12,O=C(c1ccccc1)c1ccc(N2CCNCC2)cc1,> 4 mM (inactive)
13,O=S1(=O)CCC(NC(=S)Nc2ccccn2)C1 (centres undefined),> 4 mM (inactive)
14,CN(C)c1ccc(CNn2cnnc2)cc1,> 4 mM (inactive)
15,O=C(NC(=S)NCc1cccnc1)c1ccco1,> 4 mM (inactive)
16,CC1(C)Cc2nc3[nH]c(=S)[nH]c(=O)c3cc2CO1,> 4 mM (inactive)
17,O=C1NC2NC(=O)N(c3ccccc3)C2N1 (centres undefined),> 4 mM (inactive)
18,O=C(Nc1cccc2ncccc12)c1cccnc1,> 4 mM (inactive)
19,CC(=O)Nc1sc(C)c(C)c1C(N)=O,> 4 mM (inactive)
20,O=C(O)C1CC(=O)N(Cc2cccs2)C1 (centres undefined),> 4 mM (inactive)
21,CC(=O)N1CCc2ccccc2C1CC(=O)O (centres undefined),> 4 mM (inactive)
22,COc1cc2c(cc1OC)C(=O)OC2,> 4 mM (inactive)
23,N=Cc1c(O)n(-c2cccc(Cl)c2)c(=O)[nH]c1=O,> 4 mM (inactive)
24,Nc1cc(=O)[nH]c(SCC(=O)NC2CCCCC2)n1,> 4 mM (inactive)

row,Structure (SMILES),Kd
1,CN1CC(=O)Nc2ccc([N+](=O)[O-])cc2C1=O,> 4 mM (inactive)
2,Cc1[nH]c(=O)[nH]c(=O)c1N1CCOCC1,> 4 mM (inactive)
3,O=c1[nH]c2sc3c(c2c2nncn12)CCCC3,> 4 mM (inactive)
4,Cc1ccc(NC(=O)CC2NCCNC2=O)c(C)c1 (centres undefined),> 4 mM (inactive)
5,Cc1cc(N(CN2CCCC2=O)C(=O)c2ccccc2)no1,> 4 mM (inactive)
6,O=S1(=O)CCC(Nc2ccccc2)C1 (centres undefined),> 4 mM (inactive)
7,O=C(NCc1n[nH]c(=O)c2ccccc12)C1CC1,> 4 mM (inactive)
8,CC1NC(C(=O)O)Cc2c1[nH]c1ccccc21 (centres undefined),> 4 mM (inactive)
9,CC(=O)OC(C)(C)[C@@H]1Cc2cc3ccc(=O)oc3cc2O1,> 4 mM (inactive)
10,O=C1CSC(=Nc2ccccc2)N1,> 4 mM (inactive)
11,Cc1onc(-c2ccccc2)c1C(=O)O,> 4 mM (inactive)
12,COc1c2c(cc3cc[n+](C)cc13)OCO2,> 4 mM (inactive)
13,O=C1CNC(=O)N1Cc1ccc(F)cc1,> 4 mM (inactive)
14,Cc1cc(NC(=O)c2cccc(N3C(=O)CCC3=O)c2)no1,> 4 mM (inactive)
15,COC(=O)C(O)[C@@H]1C2(C)C(=O)[C@@H](CC3=C4CC(=O)O[C@@H](c5ccoc5)[C@]4(C)CCC32)[C@H](OC(C)=O)C1(C)C (some centres undefined),> 4 mM (inactive)
16,NC(=O)c1ccccc1NC(=O)C1CCCO1 (centres undefined),> 4 mM (inactive)
17,COc1cc2ccc(=O)oc2c2ccoc12,> 4 mM (inactive)
18,CSc1nc2cc(F)c(F)cc2n1C,> 4 mM (inactive)
19,COC(=O)CC1SC(=O)NC1=O (centres undefined),> 4 mM (inactive)
20,Cc1ccc(NC(=O)CN2C(=O)CSC2=O)cc1,> 4 mM (inactive)
21,Cc1noc(C)c1C(=O)N1CCc2ccccc21,> 4 mM (inactive)
22,COC(=O)C[C@H]1C(C)(C)C(=O)[C@@H]2CC3C4=CC(=O)O[C@@H](c5ccoc5)[C@]4(C)CCC3C1(C)C2=O (some centres undefined),> 4 mM (inactive)
23,CC(=O)Nc1ccc(S(=O)(=O)NCC2CCCO2)cc1 (centres undefined),> 4 mM (inactive)
